# Test results as given in US8299107B2, “Triazole compounds that modulate HSP90 activity” (Synta Pharmaceuticals Corporation, priority 2007, dated 2012).
# System: Her2
# Test: Degradation of Her2 in BT-474 cells, Western blot (Method 1)
# Assay type: cell-based, human
# Conditions: 0.5 μM, overnight, positive control
# Method: Human high-Her2 breast carcinoma BT474 (HTB-20), SK-BR-3 (HTB-30) and MCF-7 breast carcinoma (HTB-22) from American Type Culture Collection, VA, USA were grown in Dulbecco's modified Eagle's medium with 4 mM L-glutamine and antibiotics (100 IU/ml penicillin and 100 ug/ml streptomycine; GibcoBRL). To obtain exponential cell growth; cells were trypsinized, counted and seeded at a cell density of 0.5×10^6 cells/ml regularly, every 3 days. All experiments were performed on day 1 after cell passage.
# BT-474 cells are treated with 0.5 μM, 2 μM, or 5 μM of 17AAG (a positive control) or 0.5 μM, 2 μM, or 5 μM of a compound of the invention overnight in DMEM medium. After treatment, each cytoplasmic sample is prepared from 1×10^6 cells by incubation of cell lysis buffer (#9803, cell Signaling Technology) on ice for 10 minutes. The resulting supernatant used as the cytosol fractions is dissolved with sample buffer for SDS-PAGE and run on a SDS-PAGE gel, blotted onto a nitrocellulose membrane by using semi-dry transfer. Non-specific binding to nitrocellulose is blocked with 5% skim milk in TBS with 0.5% Tween at room temperature for 1 hour, then probed with anti-Her2/ErB2 mAb (rabbit IgG, #2242, Cell Signaling) and anti-Tubulin (T9026, Sigma) as housekeeping control protein. […]
compound,measurement,value
"C=CCNC1=C2C[C@@H](C)C[C@H](OC)[C@H](O)[C@@H](C)/C=C(\C)[C@H](OC(N)=O)[C@@H](OC)/C=C\C=C(/C)C(=O)NC(=CC1=O)C2=O [Compound 17AAG, 17-allylamino-17-demethoxygeldanamycin]",degradation of Her2,partial degradation of Her2
